Data on 1 sequence can be found in US20180340012A1, “METHODS AND CO[…] TO IMPROVING PROPERTIES OF PHARMACOLOGICAL AGENTS TARGETING NERVOUS SYSTEM” (University of Utah Research Foundation, priority 2006, published 2018).

Where two headings read alike, the source gives them in different places.

The test system of experiment [1] is formalin-induced paw licking. The experiment in a line: Mouse formalin test. The format is in vivo. As to conditions: 20 mg/kg i.p. As for the experimental part: An injection of 0.5% formalin is made into the planter region of a mouse right hind paw. This elicits a distinct biphasic behavioral profile characterized by the mouse licking the affected paw. Immediately following the injection the mouse licks the paw for about 10 minutes. This is phase 1 (acute) and is followed by a brief latent period where there is little behavioral activity. A more prolonged period of about 20 to 30 minutes of paw licking ensues which constitutes phase 2 (inflammatory).
Prior to the administration of the active peptide, drug or vehicle each mouse undergoes a 15-minute conditioning period in one of several 6″ tall plexiglass observation tubes (4″ diameter) that are placed in front of a mirror. […] One hour after treatment, formalin was injected sub-dermally (20 μl; 27 gauge needle) into the plantar surface of the right hind foot. The bevel of the needle is placed facing down toward the skin surface. Following the injection of the formalin each animal is observed for first 2 minutes of each 5 minute epoch for a total of 45 minutes. The cumulative length of licking for each 2 minute time period was measured. An animal receiving the requisite volume of vehicle was alternated with each mouse given GAL-BBB2, Gal 1-16, or gabapentin. Animals were euthanized following the conclusion of the experiment.
Area under the curve (AUC) determination was made using the GraphPad Prism Version 3.03. Total AUC is calculated for both the test and control groups for both the acute and inflammatory phases. The AUC for individual animals for each phase is also calculated and converted to percentage of total AUC of control. The average percentages and SEM for both the drug treated and control were calculated and tested for significant difference.

For experiment [2], the target named is T1, hGalR2 (Homo sapiens, UniProt O43603).
T1 sequence (O43603 1-387): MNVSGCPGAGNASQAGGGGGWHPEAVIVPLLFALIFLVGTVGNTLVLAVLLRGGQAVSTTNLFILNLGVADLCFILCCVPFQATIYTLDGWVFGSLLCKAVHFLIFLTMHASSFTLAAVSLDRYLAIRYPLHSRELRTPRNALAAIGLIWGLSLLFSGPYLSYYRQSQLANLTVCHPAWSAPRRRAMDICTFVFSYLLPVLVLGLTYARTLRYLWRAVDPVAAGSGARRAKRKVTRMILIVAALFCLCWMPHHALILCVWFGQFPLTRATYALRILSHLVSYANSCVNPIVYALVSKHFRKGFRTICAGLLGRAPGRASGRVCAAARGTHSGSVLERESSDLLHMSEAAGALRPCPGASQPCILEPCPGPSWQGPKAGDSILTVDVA
As to conditions: cited from earlier work.

The subject of experiment [3] is sound-induced seizures. Put plainly: Frings audiogenic seizure-susceptible mouse model. It is filed as in vivo. As to conditions: 20 mg/kg i.p. As to the method:
The two modified galanin analogs (GAL-BBB1 and GAL-BBB2) were administered i.p. to a group of Frings audiogenic seizure susceptible mice in a dose of 4 mg/kg. At various times after administration (i.e., 15, 30, 60, 120, and 240 min) each mouse was placed into a cylindrical test chamber fitted with an audio transducer and challenged with a high-intensity sound stimulus (110 dB, 11 KHz for 20 sec). Animals not displaying tonic hind-limb extension were considered protected. […] In a subsequent study, anticonvulsant efficacy was quantitated at the time to peak effect (i.e., 1 h) in a dose-response study.
The ability of individual modified analogs to prevent seizures induced by sound in the AGS-susceptible Frings mouse model can be assessed at the time of peak effect (White et al., 1992). For this test, individual mice are placed into a plexiglass cylinder (diameter, 15 cm; height, 18 cm) fitted with an audio transducer (Model AS-ZC; FET Research and Development, Salt Lake City, Utah), and exposed to a sound stimulus of 110 decibels (11 KHz) delivered for 20 seconds. Sound-induced seizures are characterized by wild running followed by loss of righting reflex with forelimb and hindlimb tonic extension. Mice not displaying hindlimb tonic extension are considered protected.
At various times after administration (i.e., 15, 30, 60, 120, and 240 min) each mouse was placed into a cylindrical test chamber fitted with an audio transducer and challenged with a high-intensity sound stimulus (110 dB, 11 KHz for 20 sec).

In experiment [4] the target is T2, hGalR3 (Homo sapiens, UniProt O60755).
T2 sequence (O60755 1-368): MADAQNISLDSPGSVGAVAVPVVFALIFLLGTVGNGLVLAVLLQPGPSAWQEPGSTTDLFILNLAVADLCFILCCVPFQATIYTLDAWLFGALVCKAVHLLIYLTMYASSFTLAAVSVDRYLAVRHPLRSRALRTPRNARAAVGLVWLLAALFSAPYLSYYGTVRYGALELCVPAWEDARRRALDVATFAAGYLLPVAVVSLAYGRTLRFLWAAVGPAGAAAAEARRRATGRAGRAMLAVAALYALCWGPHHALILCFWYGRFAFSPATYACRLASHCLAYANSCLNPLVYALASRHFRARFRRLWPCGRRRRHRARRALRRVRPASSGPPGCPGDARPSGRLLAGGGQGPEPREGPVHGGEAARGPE
As to conditions: Table 18; compiled from literature; read-out: Affinity, KD hGalR3; cited from earlier work.

Experiment [5] concerns 6 Hz limbic seizures. Put plainly: 6 Hz limbic (psychomotor) seizure test. It is filed as in vivo, CF-1 mice. As to conditions: 4 mg/kg, i.p. An excerpt: Mice not displaying limbic seizures were considered protected.

Consider “GWTLNSAGYLLGPHAV [Gal(1-16), reference compound]”, for which, in experiment [1], the “activity in formalin test” value was “inactive”. For the same sequence, the Kd was 8.3 nM in experiment [2] (Table 2, reference ligands, same values as Table 18, read-out: affinity toward galanin receptors, GalR2); 8.3 nM in experiment [2] (Table 18, compiled from literature, read-out: Affinity, KD hGalR2); 6.5 nM in experiment [4]. In addition, the “anticonvulsant activity” value in experiment [3] is “inactive”. Besides, the “% Protection at 1, 2 and 4 hours (result in words)” value in experiment [5] was “Not active”.
